What was measured:
Assay in all cases: relative viability (nuclei count vs DMSO), 5 days (fraction); higher = more cells survive
AT9283 + Tozasertib = compound: O=C(Nc1c[nH]nc1-c1nc2ccc(CN3CCOCC3)cc2[nH]1)NC1CC1 [AT9283] + Cc1cc(Nc2cc(N3CCN(C)CC3)nc(Sc3ccc(NC(=O)C4CC4)cc3)n2)n[nH]1 [Tozasertib] (partner 0.1 µM)
Procedure, shortened: (§1)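 After 5 days of treatment, lung cancer cells in 1536-well plates were fixed and stained in a single step (final 0.05% Triton X-100, 1% formaldehyde, 1 ug/ml Hoechst) and their nuclei counted on 4× images. Treatment had been applied by pin tool the day after seeding as one drug alone or as a fixed anchor-drug dose with five library-drug doses (not always all listed) in √10 steps. Relative viability is the nuclei count of treated wells divided by that of vehicle wells, and values are medians of duplicate plates.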

AT9283 + Dasatinib = compound: O=C(Nc1c[nH]nc1-c1nc2ccc(CN3CCOCC3)cc2[nH]1)NC1CC1 [AT9283] + Cc1nc(Nc2ncc(C(=O)Nc3c(C)cccc3Cl)s2)cc(N2CCN(CCO)CC2)n1 [Dasatinib] (partner 0.075 µM)
Procedure, shortened: as §1

AT9283 + Luminespib = compound: O=C(Nc1c[nH]nc1-c1nc2ccc(CN3CCOCC3)cc2[nH]1)NC1CC1 [AT9283] + CCNC(=O)c1noc(-c2cc(C(C)C)c(O)cc2O)c1-c1ccc(CN2CCOCC2)cc1 [Luminespib] (partner 0.01 µM)
Procedure, shortened: as §1

Erlotinib + Foretinib = compound: C#Cc1cccc(Nc2ncnc3cc(OCCOC)c(OCCOC)cc23)c1 [Erlotinib] + COc1cc2c(Oc3ccc(NC(=O)C4(C(=O)Nc5ccc(F)cc5)CC4)cc3F)ccnc2cc1OCCCN1CCOCC1 [Foretinib] (partner 0.25 µM)
Procedure, shortened: as §1

Erlotinib + Navitoclax = compound: C#Cc1cccc(Nc2ncnc3cc(OCCOC)c(OCCOC)cc23)c1 [Erlotinib] + CC1(C)CCC(c2ccc(Cl)cc2)=C(CN2CCN(c3ccc(C(=O)NS(=O)(=O)c4ccc(N[C@H](CCN5CCOCC5)CSc5ccccc5)c(S(=O)(=O)C(F)(F)F)c4)cc3)CC2)C1 [Navitoclax] (partner 0.5 µM)
Procedure, shortened: as §1

Row | Cell Line | relative viability (AT9283 + Tozasertib; first compound 0.003 µM) | relative viability (AT9283 + Tozasertib; first compound 0.03 µM) | relative viability (AT9283 + Tozasertib; first compound 0.09487 µM) | relative viability (AT9283 + Tozasertib; first compound 0.3 µM) | relative viability (AT9283 + Dasatinib; first compound 0.003 µM) | relative viability (AT9283 + Dasatinib; first compound 0.03 µM) | relative viability (AT9283 + Dasatinib; first compound 0.09487 µM) | relative viability (AT9283 + Dasatinib; first compound 0.3 µM) | relative viability (AT9283 + Luminespib; first compound 0.003 µM) | relative viability (AT9283 + Luminespib; first compound 0.03 µM) | relative viability (AT9283 + Luminespib; first compound 0.09487 µM) | relative viability (AT9283 + Luminespib; first compound 0.3 µM) | relative viability (Erlotinib + Foretinib; first compound 0.02 µM) | relative viability (Erlotinib + Foretinib; first compound 0.2 µM) | relative viability (Erlotinib + Foretinib; first compound 0.6325 µM) | relative viability (Erlotinib + Navitoclax; first compound 0.02 µM) | relative viability (Erlotinib + Navitoclax; first compound 0.2 µM) | relative viability (Erlotinib + Navitoclax; first compound 0.6325 µM) | relative viability (Erlotinib + Navitoclax; first compound 2 µM) | relative viability (Erlotinib + Foretinib; first compound 2 µM)
1 | NCI-H838 | 0.274 | 0.271 | 0.216 | 0.24 | 0.302 | 0.255 | 0.222 | 0.188 | 0.341 | 0.232 | 0.203 | 0.22 | 1.14 | 0.992 | 1.09 | 1.26 | 1.11 | 1.27 | 1.05 | 
2 | LXF-289 | 0.2 | 0.127 | 0.0989 | 0.0888 | 0.227 | 0.106 | 0.0281 | 0.029 | 0.731 | 0.742 | 0.326 | 0.144 | 0.924 | 0.937 |  | 0.904 | 0.991 | 0.933 | 0.869 | 0.874
3 | SW 1573 | 0.204 | 0.192 | 0.211 | 0.112 | 0.496 | 0.115 | 0.0919 | 0.0873 | 0.199 | 0.148 | 0.142 | 0.169 | 0.886 | 0.911 | 0.895 | 0.922 | 1.05 |  | 0.896 | 0.9
4 | 201T | 0.871 | 0.6 | 0.35 | 0.302 | 0.456 | 0.592 | 0.323 | 0.292 | 0.964 | 1 | 0.486 | 0.378 |  |  | 1.17 | 1.22 | 1.2 | 1.2 | 1.17 | 0.888
5 | COR-L 105 | 0.384 | 0.318 | 0.283 | 0.288 | 0.327 | 0.181 | 0.197 | 0.185 | 1.02 | 0.334 | 0.401 | 0.33 | 0.81 | 0.461 | 0.487 | 0.809 | 0.531 | 0.364 | 0.283 | 0.248
6 | LOU-NH91 | 0.61 | 0.391 | 0.373 | 0.388 | 0.524 | 0.562 | 0.366 | 0.296 | 0.321 | 0.353 | 0.358 | 0.32 | 0.519 | 0.524 | 0.585 | 0.52 | 0.38 | 0.392 | 0.4 | 
7 | PC-3 [JPC-3] | 0.924 | 0.814 | 0.492 | 0.58 | 1.06 | 1.02 | 0.876 | 0.718 | 0.739 | 0.744 | 0.473 | 0.404 | 0.935 | 0.384 | 0.323 | 0.653 | 0.443 | 0.349 | 0.295 | 0.36
8 | NCI-H1666 | 0.671 | 0.479 | 0.428 | 0.43 | 0.866 | 0.682 | 0.574 | 0.431 | 1.03 | 0.726 | 0.557 | 0.499 | 1.06 | 0.86 | 0.802 | 0.999 | 0.817 | 0.407 | 0.347 | 0.767
9 | EPLC-272H | 0.306 | 0.192 | 0.203 | 0.159 | 0.342 | 0.307 | 0.106 | 0.103 | 0.332 | 0.246 | 0.133 | 0.149 | 0.821 | 0.477 | 0.534 | 1.04 | 1.05 | 1.1 | 0.589 | 0.342
10 | HCC-15 | 0.25 | 0.134 | 0.126 | 0.0965 | 0.587 | 0.221 | 0.112 | 0.112 | 0.302 | 0.234 | 0.133 | 0.115 | 0.996 | 1.01 | 1.15 | 0.735 | 0.68 | 0.736 | 0.617 | 0.934

— the supplement of paper PMC10307832
